From US10532995B2, “Substituted pyrazole compounds as serine protease inhibitors” (VERSEON CORPORATION, priority 2015, dated 2020)
Counter-ions that a name gives are not always drawn.

Molecular target: T1, Human thrombin (Homo sapiens, UniProt P00734)
T1 construct: purchased Haematologic Technologies Inc
Assay: Thrombin protease activity inhibition, chromogenic substrate S-2238
Type: biochemical
Details: 3 nM thrombin, 125 μM S-2238, 10 min pre-incubation, RT
Procedure: The thrombin activity reported herein (e.g., Table A) was obtained as follows. […] Thrombin was assayed in buffer containing 0.05 M Tris (pH 7.4), 0.015 M NaCl and 0.01% PEG-8000. The final concentration of enzyme used was 3 nM thrombin. […] All assays were performed in 96-well microtiter plates at room temperature (RT). […] Inhibitor IC50 values were determined by adding test compound as ten point, three-fold serial dilutions in buffer solution, as known in the art. The plate was read at 10 minutes after substrate addition. The IC50 was calculated by plotting the percent (%) inhibition against compound concentration and fitting the data to a constrained four parameter sigmoidal curve, as known in the art.

| Compound | IC50 [nM] |
| --- | --- |
| O=S(=O)(c1ccccc1)N1CCC(c2cc(NCc3ccc(Cl)s3)[nH]n2)CC1 [Entry 130, 3-[1-(benzenesulfonyl)piperidin-4-yl]-N-[(5-chlorothiophen-2-yl)methyl]-1H-pyrazol-5-amine] | 1000 to 10000 |
| Clc1ccc(CNc2cc(C3CC4CCC(C3)N4)n[nH]2)s1 (stereo not shown) [Entry 131, 3-8-azabicyclo[3.2.1]octan-3-yl-N-[(5-chlorothiophen-2-yl)methyl]-1H-pyrazol-5-amine] | > 100000 |
| CN(C)C(=O)N1CCC(c2cc(NCc3ccc(Cl)s3)n(C(=O)N(C)C)n2)CC1 [Entry 136, 4-(5-[(5-chlorothiophen-2-yl)methyl]amino-1-(dimethylcarbamoyl)-1H-pyrazol-3-yl)-N,N-dimethylpiperidine-1-carboxamide] | > 100000 |
| CN(C)C(=O)N1CCC(c2cc(NCc3ccc(Cl)s3)[nH]n2)CC1 [Entry 137, 4-(5-[(5-chlorothiophen-2-yl)methyl]amino-1H-pyrazol-3-yl)-N,N-dimethylpiperidine-1-carboxamide] | > 100000 |
| CN(C)S(=O)(=O)N1CCC(c2cc(NCc3ccc(Cl)s3)[nH]n2)CC1 [Entry 138, 4-(5-[(5-chlorothiophen-2-yl)methyl]amino-1H-pyrazol-3-yl)-N,N-dimethylpiperidine-1-sulfonamide] | > 100000 |
| O=C(c1cccc2c1OCCO2)n1nc(C2CCNCC2)cc1NCc1ccc(Cl)s1 [Entry 143, N-[(5-chlorothiophen-2-yl)methyl]-1-(2,3-dihydro-1,4-benzodioxine-5-carbonyl)-3-(piperidin-4-yl)-1H-pyrazol-5-amine hydrochloride] | 1000 to 10000 |
| COc1ccc(C(=O)n2nc(C3CCNCC3)cc2NCc2ccc(Cl)s2)c(OC)c1 [Entry 147, N-[(5-chlorothiophen-2-yl)methyl]-1-(2,4-dimethoxybenzoyl)-3-(piperidin-4-yl)-1H-pyrazol-5-amine] | 1000 to 10000 |
| CC1CCCC(C)C1C(=O)n1nc(C2CCNCC2)cc1NCc1ccc(Cl)s1 (stereo not shown) [Entry 151, N-[(5-chlorothiophen-2-yl)methyl]-1-(2,6-dimethylcyclohexanecarbonyl)-3-(piperidin-4-yl)-1H-pyrazol-5-amine hydrochloride] | 1000 to 10000 |
| COc1ccccc1C(=O)n1nc(C2(C)CCCNC2)cc1NCc1ccc(Cl)s1 (stereo not shown) [Entry 153, N-[(5-chlorothiophen-2-yl)methyl]-1-(2-methoxybenzoyl)-3-(3-methylpiperidin-3-yl)-1H-pyrazol-5-amine] | 1000 to 10000 |
| COc1ccccc1C(=O)n1nc(C2(C)CCNCC2)cc1NCc1ccc(Cl)s1 [Entry 154, N-[(5-chlorothiophen-2-yl)methyl]-1-(2-methoxybenzoyl)-3-(4-methylpiperidin-4-yl)-1H-pyrazol-5-amine] | 1000 to 10000 |
| COc1ccccc1C(=O)n1nc(C2CCN(CC(F)(F)F)CC2)cc1NCc1ccc(Cl)s1 [Entry 160, N-[(5-chlorothiophen-2-yl)methyl]-1-(2-methoxybenzoyl)-3-[1-(2,2,2-trifluoroethyl)piperidin-4-yl]-1H-pyrazol-5-amine] | 1000 to 10000 |
| CC1(C(=O)n2nc(C3(C)CCCNC3)cc2NCc2ccc(Cl)s2)CCOCC1 (stereo not shown) [Entry 162, N-[(5-chlorothiophen-2-yl)methyl]-1-(4-methyloxane-4-carbonyl)-3-(3-methylpiperidin-3-yl)-1H-pyrazol-5-amine] | 1000 to 10000 |

Second part, the compound after the results:

| IC50 [nM] | Compound |
| --- | --- |
| 1000 to 10000 | O=C(c1ccoc1)n1nc(C2CNC2)cc1NCc1ccc(Cl)s1 [Entry 128, 3-(azetidin-3-yl)-N-[(5-chlorothiophen-2-yl)methyl]-1-(furan-3-carbonyl)-1H-pyrazol-5-amine; trifluoroacetic acid] |
| 1000 to 10000 | O=C(c1ccsc1)n1nc(C2CNC2)cc1NCc1ccc(Cl)s1 [Entry 129, 3-(azetidin-3-yl)-N-[(5-chlorothiophen-2-yl)methyl]-1-(thiophene-3-carbonyl)-1H-pyrazol-5-amine; trifluoroacetic acid] |
| 100 to 1000 | CN(C)S(=O)(=O)N1CCC(c2cc(NCc3ccc(Cl)s3)n(C(=O)C(C)(C)C)n2)CC1 [Entry 133, 4-(5-[(5-chlorothiophen-2-yl)methyl]amino-1-(2,2-dimethylpropanoyl)-1H-pyrazol-3-yl)-N,N-dimethylpiperidine-1-sulfonamide] |
| < 100 | CN(C)C(=O)N1CCC(c2cc(NCc3ccc(Cl)s3)n(C(=O)C(C)(C)CO)n2)CC1 [Entry 134, 4-(5-[(5-chlorothiophen-2-yl)methyl]amino-1-(3-hydroxy-2,2-dimethylpropanoyl)-1H-pyrazol-3-yl)-N,N-dimethylpiperidine-1-carboxamide] |
| < 100 | CN(C)S(=O)(=O)N1CCC(c2cc(NCc3ccc(Cl)s3)n(C(=O)C(C)(C)CO)n2)CC1 [Entry 135, 4-(5-[(5-chlorothiophen-2-yl)methyl]amino-1-(3-hydroxy-2,2-dimethylpropanoyl)-1H-pyrazol-3-yl)-N,N-dimethylpiperidine-1-sulfonamide] |
| < 100 | CC1(C(=O)n2nc(C3CCN(C(=O)N4CCOCC4)CC3)cc2NCc2ccc(Cl)s2)CCC(O)CC1 (stereo not shown) [Entry 139, 4-(5-[(5-chlorothiophen-2-yl)methyl]amino-3-[1-(morpholine-4-carbonyl)piperidin-4-yl]-1H-pyrazole-1-carbonyl)-4-methylcyclohexan-1-ol] |
| < 100 | CC(C)(C)C(=O)n1nc(C2CCN(C(=O)N3CCOCC3)CC2)c(C#N)c1NCc1ccc(Cl)s1 [Entry 140, 5-[(5-chlorothiophen-2-yl)methyl]amino-1-(2,2-dimethylpropanoyl)-3-[1-(morpholine-4-carbonyl)piperidin-4-yl]-1H-pyrazole-4-carbonitrile] |
| 100 to 1000 | CN1CCC(C)(C(=O)n2nc(C3CCN(C(=O)N4CCOCC4)CC3)cc2NCc2ccc(Cl)s2)CC1 [Entry 142, N-[(5-chlorothiophen-2-yl)methyl]-1-(1,4-dimethylpiperidine-4-carbonyl)-3-[1-(morpholine-4-carbonyl)piperidin-4-yl]-1H-pyrazol-5-amine; formic acid] |
| < 100 | COc1ccc(C(=O)n2nc(C3CCCN3)cc2NCc2ccc(Cl)s2)c(OC)c1 (stereo not shown) [Entry 148, N-[(5-chlorothiophen-2-yl)methyl]-1-(2,4-dimethoxybenzoyl)-3-(pyrrolidin-2-yl)-1H-pyrazol-5-amine] |
| 100 to 1000 | COc1ccccc1C(=O)n1nc(C2(C)CCCN2)cc1NCc1ccc(Cl)s1 (stereo not shown) [Entry 152, N-[(5-chlorothiophen-2-yl)methyl]-1-(2-methoxybenzoyl)-3-(2-methylpyrrolidin-2-yl)-1H-pyrazol-5-amine; formic acid] |
| < 100 | COc1ccccc1C(=O)n1nc(C2CCCO2)cc1NCc1ccc(Cl)s1 (stereo not shown) [Entry 156, N-[(5-chlorothiophen-2-yl)methyl]-1-(2-methoxybenzoyl)-3-(oxolan-2-yl)-1H-pyrazol-5-amine] |
| 100 to 1000 | COc1ccccc1C(=O)n1nc(C2CCCNC2)cc1NCc1ccc(Cl)s1 (stereo not shown) [Entry 157, N-[(5-chlorothiophen-2-yl)methyl]-1-(2-methoxybenzoyl)-3-(piperidin-3-yl)-1H-pyrazol-5-amine] |
| 100 to 1000 | COc1ccccc1C(=O)n1nc(C2CCCN2)cc1NCc1ccc(Cl)s1 (stereo not shown) [Entry 159, N-[(5-chlorothiophen-2-yl)methyl]-1-(2-methoxybenzoyl)-3-(pyrrolidin-2-yl)-1H-pyrazol-5-amine] |
